The assay concerns freshly collected human blood. The experiment in a line: Whole blood clotting slide test. The note with it: 10 μl solution added to plain glass slide before blood.

Text: The method allows for measuring changes in the clotting time induced by contact with foreign surfaces, i.e. plain glass or coated glass, and for studying the effects of drugs on the clotting induced by foreign surface.
Venous blood was collected with venipuncture from 19 random volunteers participating in CNP epidemiological study (Ethical Committee Approval, Kuopio University). Volunteers signed an informed consent. Blood was collected with venipuncture in siliconized glass serum tubes, EDTA plasma tubes or citrate plasma tubes (Terumo), and was tested immediately after collection for whole blood clotting time on different test platforms.
200 μl of freshly drawn blood was added to pre-coated or plain glass slides which were put on a tilting shaker 15 tilts/minute at room temperature until formation of a solid clot was observed as “frozen droplet”. Experiments were carried out usually in triplicate to determine reproducibility of tests. CV % for the triplicate tests were less than 6.81% (CNP-coated slide, n=13), 8.79% (apatite-coated slide, n=15) and 10.37% (non-treated control slide, n=15). Clotting time results were analyzed by Bonferroni (Dunn) t Test (Table 1).
Therefore, to study the effects of apatite on clotting, a whole blood clotting slide test was developed. […]

On to `O=C([O-])CN(CCN(CC(=O)[O-])CC(=O)[O-])CC(=O)[O-].[Ca+2].[Na+].[Na+]` [Calcium EDTA], for which the “effect on clotting time” value is “did not affect the clotting time”. Under `CC(O)(P(=O)(O)O)P(=O)(O)O` [etidronate] stands “did not affect the clotting time”.

The values are drawn from US20070134814A1, “Methods and compositions for the detection of calcifying nano-particles, identification and quantification of associated proteins thereon, and correlation to disease” (priority 2005, published 2007).
